# In patent US20060264509A1, “Methods for treating pain using smooth muscle modulators and a2 subunit calcium channel modulators” (priority 2003, published 2006):
# “And” between values parts separate entries of the source, which are not always exact repeats. Identical values can stand only once. Like-named read-outs stand apart in the source and are kept apart here.
# Columns and labels:
# [1] = test system: bladder capacity; assay: Dilute acetic acid irritative model, bladder capacity by cystometry in urethane-anesthetized rats; format: in vivo, rat; conditions: for effectiveness of drug alone on bladder capacity: i.v.; for effective dose range of the drug in the isobologram combinations compared with the drug alone: individual animals, return to 31% of saline control
# Method: Subsequently, three series at markedly lower doses and at different dose ratios were performed for the purposes of isobologram construction (n=4/group).
# Subsequent studies aimed at isobologram construction combined the drugs in dose combinations as shown in the table below (low, middle and high doses for each drug paired).
# The abdominal cavity was moistened with saline and closed by covering with a thin plastic sheet in order to maintain access to the bladder for emptying purposes.
# Bladder capacity data for each animal were normalized to “% Recovery from Irritation,” and this index was used as the measure of efficacy. Data from experiments in which each of the drugs were administered alone were utilized to create theoretical populations of additive effects for each dose (low, mid and high), and these were compared by one-tailed t-test (individual dose comparisons) and by 2-Way ANOVA (across doses) to the actual combination drug data. The means and standard deviations of each individual treatment's “dose-matched” (low, middle, and high) responses were added together to estimate the mean and standard deviation of the theoretical additive populations for which to compare to the actual data obtained from the combination experiments. The theoretical additive effect population N=(Nantimuscarinic+Nα28 subunit modulator)−1. P<0.050 was considered significant.
# Isobologram construction consisted of two methods, both utilizing the same data, but plotting the results either as group means or by individual responses. […] When utilizing individual responses for both drugs alone and the combinations listed in the above table, the target value was 31% of saline control. […] For statistical purposes, the data were analyzed making comparisons for each drug, regardless of whether alone or in combination.
# [2] = for pharmacokinetic drug-drug interaction between oxybutynin and gabapentin: rat, i.v. 3 mg/kg oxybutynin and 100 mg/kg gabapentin
# [3] = test system: nociception induced by formalin and carrageenan; mechanical hyperalgesia and mechanical/thermal allodynia; conditions: Rose et al. (2002); cited from earlier work
# [4] = test system: painful symptoms associated with diabetic peripheral neuropathy, post-herpetic neuralgia, and neuropathic pain; conditions: double-blind, placebo-controlled trials; cited from earlier work
# [5] = preclinical and clinical studies, cited from earlier work
# [6] = test system: beta-adrenergic blocking; conditions: cited from earlier work
# [7] = analyte gabapentin in rat plasma, i.v. 100 mg/kg gabapentin alone (Gab) or with 3 mg/kg oxybutynin (Com), group Mean
# [8] = analyte gabapentin in rat plasma, i.v. 100 mg/kg gabapentin alone (Gab) or with 3 mg/kg oxybutynin (Com), group Mean, outliers excluded
# [9] = analyte gabapentin in rat plasma, i.v. 100 mg/kg gabapentin alone (Gab) or with 3 mg/kg oxybutynin (Com), individual animals
smiles,measurement,setting,value
"NCC1(CC(=O)O)CCCCC1 [Gab, 1-(aminomethyl) cyclohexaneacetic acid]",effectiveness of drug alone on bladder capacity,[1],modest effectiveness
same,effective dose range of the drug in the isobologram combinations compared with the drug alone,[1],significantly lower
same,AUC0-∞,[2]; [7],1.62e+07 ng·min/mL
same,CL,[2]; [7],0.391 L/h/kg
same,Vz,[2]; [7],1.242 L/kg
same,t1/2,[2]; [7],128 min
same,AUC0-t,[2]; [8],9.45e+06 ng·min/mL
same,Cmax,[2]; [8],98.6 µg/mL
same,AUC0-∞,[2]; [9],1.95e+07 ng·min/mL
same,CL,[2]; [9],0.307 L/h/kg
same,Tmax,[2]; [9],15 min and 30 min
same,Vz,[2]; [9],0.91 L/kg and 0.89 L/kg
same,comparison of Cmax and AUC0-T data for gabapentin between single-drug group and combination (Com) group,"[2]; rat plasma, i.v., Table 2",no appreciable difference
same,pharmacokinetic drug-drug interaction between oxybutynin and gabapentin,[2],No evidence of drug-drug interaction
same,effect in neuropathic pain models of mechanical hyperalgesia and mechanical/thermal allodynia,[3],inhibitory effect
same,effect on nociception induced by formalin and carrageenan,[3],block the tonic phase of nociception
same,"efficacy for painful symptoms associated with diabetic peripheral neuropathy, post-herpetic neuralgia, and neuropathic pain",[4],effective treatment
"CCN(CC)CC#CCOC(=O)C(O)(c1ccccc1)C1CCCCC1 (stereo not drawn) [Oxy, 4-diethylaminio-2-butynyl phenylcyclohexyglycolate]",effectiveness of drug alone on bladder capacity,[1],modest effectiveness
same,effective dose range of the drug in the isobologram combinations compared with the drug alone,[1],significantly lower
same,pharmacokinetic drug-drug interaction between oxybutynin and gabapentin,[2],No evidence of drug-drug interaction
CC(OC(=O)NCC1(CC(=O)O)CCCCC1)OC(=O)C(C)C (stereo not drawn) [XP13512],blood levels of gabapentin across a broad range of oral doses,[5]; oral,dose proportional
same,absorption from the large intestine,[5],absorbed efficiently
"CCNCC#CCOC(=O)C(O)(c1ccccc1)C1CCCCC1 (stereo not drawn) [desethyl oxybutynin, N-desethyl-oxybutynin]",comparison of Cmax and AUC0-t data for desethyl oxybutynin between oxybutynin (Oxy) group and combination (Com) group,"[2]; rat plasma, i.v., Table 4",no appreciable difference
CC(C)NCC(O)COc1cccc2ccccc12 (stereo not drawn) [propranolol],potency of L-enantiomer relative to D-enantiomer,[6],100 times
